Experimental data taken from patent US11730746B2, “17beta-heterocyclyl-digitalis like compounds for the treatment of heart failure” (priority 2018, dated 2023).
Marks after values point to notes of the source that are not given here.

Assays:
[1] = target: T1, Histamine H1 (Homo sapiens, UniProt P35367); experiment: Receptor binding 239610
T1 construct: Eurofins (contract assay) 239610
Protocol: (§1) Radioligand binding to a panel of receptors was carried out by Eurofins on crude membrane preparations according to published procedures and by using appropriate reference standard (Eurofins, CVie 101 compound code PT #1207859, study #AB76416, quote #68407-1, for Cvie Therapeutics Limited, Taiwan (R.OC.) on Mar. 5, 2017). CVie 101 was tested at the concentration of 10 μM. No significant interaction was documented, except for Sodium Channel, site 2 from rat (cat #279510), where a significant response (≥50%) was noted (Table 7).

[2] = target: T2, Glucocorticoid (Homo sapiens, UniProt P04150); experiment: Receptor binding 232030
T2 construct: Eurofins (contract assay) 232030
Protocol: as §1

[3] = target: T3, Muscarinic M2 (Homo sapiens, UniProt P08172); experiment: Receptor binding 252710
T3 construct: Eurofins (contract assay) 252710
Protocol: as §1

[4] = target: T4, Muscarinic M3 (Homo sapiens, UniProt P20309); experiment: Receptor binding 252810
T4 construct: Eurofins (contract assay) 252810
Protocol: as §1

[5] = target: T5, Adenosine A2A (Homo sapiens, UniProt P29274); experiment: Receptor binding 200610
T5 construct: Eurofins 200610; host or cells: crude membrane preparation
T5 sequence (P29274 whole entry): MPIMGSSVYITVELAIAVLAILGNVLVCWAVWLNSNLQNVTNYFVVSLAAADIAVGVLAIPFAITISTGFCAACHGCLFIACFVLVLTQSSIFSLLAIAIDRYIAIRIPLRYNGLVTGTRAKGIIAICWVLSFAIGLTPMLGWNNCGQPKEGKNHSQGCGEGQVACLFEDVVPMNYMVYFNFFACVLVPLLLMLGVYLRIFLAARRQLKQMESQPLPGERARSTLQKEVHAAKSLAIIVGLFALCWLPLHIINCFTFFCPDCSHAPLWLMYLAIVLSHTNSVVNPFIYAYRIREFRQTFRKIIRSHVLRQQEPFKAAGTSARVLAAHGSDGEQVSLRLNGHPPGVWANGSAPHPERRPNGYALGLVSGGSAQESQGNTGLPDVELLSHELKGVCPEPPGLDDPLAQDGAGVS
Protocol: as §1

[6] = target: T6, Adenosine A1 (Homo sapiens, UniProt P30542); experiment: Receptor binding 200510
T6 construct: Eurofins 200510; host or cells: crude membrane preparation
T6 sequence (P30542 whole entry): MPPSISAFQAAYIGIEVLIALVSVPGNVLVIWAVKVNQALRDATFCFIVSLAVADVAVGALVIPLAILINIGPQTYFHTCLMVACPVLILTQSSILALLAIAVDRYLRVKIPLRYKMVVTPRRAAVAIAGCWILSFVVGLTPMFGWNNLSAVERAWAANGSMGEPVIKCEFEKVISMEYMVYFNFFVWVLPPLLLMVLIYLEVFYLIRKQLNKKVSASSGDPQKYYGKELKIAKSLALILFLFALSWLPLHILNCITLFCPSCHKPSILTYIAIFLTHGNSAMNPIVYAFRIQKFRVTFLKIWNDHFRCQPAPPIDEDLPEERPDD
Protocol: as §1

[7] = target: T7, Transporter, Norepinephrine (NET) (Homo sapiens, UniProt P23975); experiment: Receptor binding 204410
T7 construct: Eurofins (contract assay) 204410
T7 sequence (P23975 whole entry): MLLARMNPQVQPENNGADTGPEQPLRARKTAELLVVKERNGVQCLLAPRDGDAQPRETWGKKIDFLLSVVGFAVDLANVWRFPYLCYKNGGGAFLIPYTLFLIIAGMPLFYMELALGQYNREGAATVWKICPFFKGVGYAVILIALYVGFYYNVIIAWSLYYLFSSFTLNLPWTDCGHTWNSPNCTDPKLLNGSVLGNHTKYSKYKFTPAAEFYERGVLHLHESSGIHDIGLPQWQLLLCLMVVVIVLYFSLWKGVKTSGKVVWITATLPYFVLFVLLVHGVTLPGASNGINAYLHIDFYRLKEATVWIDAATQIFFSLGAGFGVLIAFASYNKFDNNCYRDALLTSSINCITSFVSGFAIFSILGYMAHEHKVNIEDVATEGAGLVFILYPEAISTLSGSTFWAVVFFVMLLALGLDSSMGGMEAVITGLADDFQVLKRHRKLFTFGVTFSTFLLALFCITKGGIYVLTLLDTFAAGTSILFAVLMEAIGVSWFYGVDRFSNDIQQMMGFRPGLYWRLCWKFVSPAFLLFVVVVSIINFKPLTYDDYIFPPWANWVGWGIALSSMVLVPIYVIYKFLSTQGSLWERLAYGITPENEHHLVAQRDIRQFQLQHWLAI
Protocol: as §1

[8] = target: T8, Estrogen ERβ (Homo sapiens, UniProt Q92731); experiment: Receptor binding 226050
T8 construct: Eurofins (contract assay) 226050
Protocol: as §1

[9] = target: T9, SERCA2a (Canis lupus familiaris, UniProt O46674); experiment: SERCA2a ATPase activity in heart-derived SR microsomes from normal dog; assay type: biochemical; conditions: for Vmax (SERCA2a ATPase activity): mean ± SD
T9 construct: pre-incubated with 2 μg of microsomes; from tissue; host or cells: dog heart left ventricle, SR microsomes
T9 sequence (O46674 whole entry): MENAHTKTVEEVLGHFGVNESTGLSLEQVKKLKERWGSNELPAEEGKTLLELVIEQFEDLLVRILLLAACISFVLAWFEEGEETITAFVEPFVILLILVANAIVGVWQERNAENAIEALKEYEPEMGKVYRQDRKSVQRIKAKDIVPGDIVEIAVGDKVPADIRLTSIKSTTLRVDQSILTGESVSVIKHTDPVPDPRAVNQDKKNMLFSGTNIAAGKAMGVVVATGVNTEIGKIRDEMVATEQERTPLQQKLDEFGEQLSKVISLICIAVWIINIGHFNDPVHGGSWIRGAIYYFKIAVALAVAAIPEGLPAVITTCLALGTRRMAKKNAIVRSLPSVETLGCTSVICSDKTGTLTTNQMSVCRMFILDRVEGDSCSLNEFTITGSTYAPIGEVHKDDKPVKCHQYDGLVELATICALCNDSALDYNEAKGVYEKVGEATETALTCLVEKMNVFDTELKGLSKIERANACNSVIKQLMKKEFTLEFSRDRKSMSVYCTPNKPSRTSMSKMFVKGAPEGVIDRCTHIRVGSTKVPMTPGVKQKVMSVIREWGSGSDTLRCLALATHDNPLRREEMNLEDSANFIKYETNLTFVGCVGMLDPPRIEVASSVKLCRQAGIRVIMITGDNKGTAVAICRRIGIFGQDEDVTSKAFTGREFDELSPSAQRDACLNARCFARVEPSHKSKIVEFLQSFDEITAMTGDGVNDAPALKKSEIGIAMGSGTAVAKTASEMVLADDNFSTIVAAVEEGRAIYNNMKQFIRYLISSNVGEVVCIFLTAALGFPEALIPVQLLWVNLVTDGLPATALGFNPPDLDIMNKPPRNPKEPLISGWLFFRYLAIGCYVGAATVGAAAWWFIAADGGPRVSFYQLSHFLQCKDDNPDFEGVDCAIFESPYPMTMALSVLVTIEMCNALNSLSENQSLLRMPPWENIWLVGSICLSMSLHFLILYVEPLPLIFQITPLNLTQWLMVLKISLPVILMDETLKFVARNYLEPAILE
Protocol: Left ventricle tissues were dissected, homogenized in 4 volumes of 10 mM NaHCO3, pH 7, 1 mM PMSF, 10 μg/ml Aprotinin and Leupeptin and centrifuged at 12,000 g for 15 minutes, as published (Nediani C. et al. J Biol Chem. 1996; 271:19066-73). Supernatants were filtered and centrifuged at 100,000 g for 30 min. Contractile proteins were extracted by suspending the pellets with 0.6 M KCl, 30 mM Histidine, pH 7 and further centrifugation at 100,000 g for 30 min. Final pellets were reconstituted with 0.3 M Sucrose, 30 mM Histidine, pH 7.
SERCA2a activity was measured “in vitro” as ^32P-ATP hydrolysis at different Ca^2+ concentrations (100-4000 nM) in the absence and presence of the tested compounds, as described (Micheletti R. et al. Am J Card 2007; 99:24A-32A). Increasing concentrations of each compound (from 1 to 100 nM) were pre-incubated with 2 μg of microsomes for 5 min at 4° C. in 80 μl of a solution containing 100 mM KCl, 5 mM MgCl2, 1 μM A23187, 20 mM Tris, pH 7.5. Then, 20 μl of 5 mM Tris-ATP containing 50 nCi of ^32P-ATP (3-10 Ci/mmol, Perkin Elmer) were added. The ATP hydrolysis was continued for 15 min at 37° C. and the reaction was stopped by acidification with 100 μl of 20% v/v ice-cold perchloric acid. ^32P was separated by centrifugation with activated charcoal (Norit A, SERVA) and the radioactivity was measured. SERCA2a-dependent activity was identified as the portion of total hydrolytic activity inhibited by 10 μM cyclopiazonic acid (Seidler N W. et al. J Biol Chem. 1989; 264:17816-23).
Dose-response curves were fitted by using a sigmoidal curve fitting software and the maximal velocity (Vmax) activity and the Kd Ca^2+ were calculated (Synergy Software KaleidaGraph 3.6).

[10] = target: T10, Monoamine Oxidase MAO-B (Homo sapiens, UniProt P27338); experiment: Eurofins panel 140120; assay type: biochemical
T10 construct: Eurofins 140120
T10 sequence (P27338 whole entry): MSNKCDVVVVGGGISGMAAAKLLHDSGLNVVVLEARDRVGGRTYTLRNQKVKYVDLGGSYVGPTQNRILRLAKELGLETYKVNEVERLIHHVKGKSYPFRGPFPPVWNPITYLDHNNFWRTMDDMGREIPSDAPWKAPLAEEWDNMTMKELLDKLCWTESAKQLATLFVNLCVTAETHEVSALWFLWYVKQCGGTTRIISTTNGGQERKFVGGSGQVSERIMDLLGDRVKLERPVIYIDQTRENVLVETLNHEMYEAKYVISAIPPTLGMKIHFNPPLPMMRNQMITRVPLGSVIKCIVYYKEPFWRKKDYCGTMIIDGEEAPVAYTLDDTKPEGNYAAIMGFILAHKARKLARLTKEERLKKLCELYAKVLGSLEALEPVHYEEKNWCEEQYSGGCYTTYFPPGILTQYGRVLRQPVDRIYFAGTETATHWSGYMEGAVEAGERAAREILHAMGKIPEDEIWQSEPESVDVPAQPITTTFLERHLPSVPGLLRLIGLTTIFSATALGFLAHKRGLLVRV
Protocol: as §1

[11] = target: T11, Ryanodine RyR3 (Rattus norvegicus, UniProt A0ABK0LPH6); experiment: Receptor binding 270300
T11 construct: Eurofins (contract assay) 270300
Protocol: as §1

[12] = target: T12, Potassium Channel (KATP) (Cricetus cricetus, UniProt Q09427); experiment: Receptor binding 265600; design: species or system hamster
T12 construct: Eurofins (contract assay) 265600
T12 sequence (Q09427 whole entry): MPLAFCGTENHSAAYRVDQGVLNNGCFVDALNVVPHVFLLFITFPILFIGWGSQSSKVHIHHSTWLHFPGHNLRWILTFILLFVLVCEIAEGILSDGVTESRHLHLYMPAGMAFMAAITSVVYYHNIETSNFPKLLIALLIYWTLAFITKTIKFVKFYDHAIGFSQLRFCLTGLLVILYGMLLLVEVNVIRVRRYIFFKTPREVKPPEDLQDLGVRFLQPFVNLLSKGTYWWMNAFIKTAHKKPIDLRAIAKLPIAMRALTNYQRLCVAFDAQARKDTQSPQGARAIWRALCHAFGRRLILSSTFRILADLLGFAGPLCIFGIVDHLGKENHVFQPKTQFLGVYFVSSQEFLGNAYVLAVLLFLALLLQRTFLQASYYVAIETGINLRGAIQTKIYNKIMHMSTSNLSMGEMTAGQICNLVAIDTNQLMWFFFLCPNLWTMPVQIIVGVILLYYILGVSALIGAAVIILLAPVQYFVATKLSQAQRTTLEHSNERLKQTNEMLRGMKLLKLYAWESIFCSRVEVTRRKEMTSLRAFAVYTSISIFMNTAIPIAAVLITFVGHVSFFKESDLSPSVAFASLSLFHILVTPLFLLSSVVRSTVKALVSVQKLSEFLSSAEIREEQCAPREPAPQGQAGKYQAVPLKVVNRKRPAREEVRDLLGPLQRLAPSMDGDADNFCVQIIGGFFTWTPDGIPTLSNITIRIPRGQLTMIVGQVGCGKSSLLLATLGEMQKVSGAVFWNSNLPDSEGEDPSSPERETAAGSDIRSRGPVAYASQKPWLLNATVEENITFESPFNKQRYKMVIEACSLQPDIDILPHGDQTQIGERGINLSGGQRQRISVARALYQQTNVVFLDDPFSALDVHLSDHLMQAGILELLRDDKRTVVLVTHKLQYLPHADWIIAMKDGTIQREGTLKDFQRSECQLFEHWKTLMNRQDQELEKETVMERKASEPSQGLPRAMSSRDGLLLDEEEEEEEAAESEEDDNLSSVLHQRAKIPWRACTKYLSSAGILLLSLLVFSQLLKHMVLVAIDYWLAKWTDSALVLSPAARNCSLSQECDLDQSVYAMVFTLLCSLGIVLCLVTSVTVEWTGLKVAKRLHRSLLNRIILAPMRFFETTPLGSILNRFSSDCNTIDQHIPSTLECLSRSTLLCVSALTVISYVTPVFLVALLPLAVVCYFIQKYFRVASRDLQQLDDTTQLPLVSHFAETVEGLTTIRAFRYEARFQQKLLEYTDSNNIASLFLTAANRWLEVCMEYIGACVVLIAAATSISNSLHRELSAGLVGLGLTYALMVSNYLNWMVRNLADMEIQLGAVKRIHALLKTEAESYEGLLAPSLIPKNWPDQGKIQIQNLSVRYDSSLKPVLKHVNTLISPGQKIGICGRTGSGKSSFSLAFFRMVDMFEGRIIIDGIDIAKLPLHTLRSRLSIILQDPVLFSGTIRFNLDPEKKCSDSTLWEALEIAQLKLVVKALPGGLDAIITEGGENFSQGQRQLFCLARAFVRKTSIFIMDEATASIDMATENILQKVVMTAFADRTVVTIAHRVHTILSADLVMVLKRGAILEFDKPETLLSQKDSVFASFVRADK
Protocol: as §1

[13] = target: T13, hERG potassium channel (Homo sapiens, UniProt Q12809); experiment: Receptor binding 265900; conditions: crude membrane preparations
T13 construct: Eurofins (contract assay) 265900
Protocol: as §1

[14] = system: GABAA, Flunitrazepam, Central; experiment: Receptor binding 226600; design: species or system rat; conditions: 10 μM
Protocol: as §1

[15] = target: T14, Sigma σ1 (Homo sapiens, UniProt Q99720); experiment: Receptor binding 278110
T14 construct: Eurofins (contract assay) 278110
Protocol: as §1

[16] = target: T15, Phosphodiesterase PDE3 (Homo sapiens, UniProt Q14432); experiment: Eurofins panel 152000; assay type: biochemical
T15 construct: Eurofins 152000
Protocol: as §1

[17] = target: T16, Dopamine D1 (Homo sapiens, UniProt P21728); experiment: Receptor binding 219500
T16 construct: Eurofins 219500; host or cells: crude membrane preparation
T16 sequence (P21728 whole entry): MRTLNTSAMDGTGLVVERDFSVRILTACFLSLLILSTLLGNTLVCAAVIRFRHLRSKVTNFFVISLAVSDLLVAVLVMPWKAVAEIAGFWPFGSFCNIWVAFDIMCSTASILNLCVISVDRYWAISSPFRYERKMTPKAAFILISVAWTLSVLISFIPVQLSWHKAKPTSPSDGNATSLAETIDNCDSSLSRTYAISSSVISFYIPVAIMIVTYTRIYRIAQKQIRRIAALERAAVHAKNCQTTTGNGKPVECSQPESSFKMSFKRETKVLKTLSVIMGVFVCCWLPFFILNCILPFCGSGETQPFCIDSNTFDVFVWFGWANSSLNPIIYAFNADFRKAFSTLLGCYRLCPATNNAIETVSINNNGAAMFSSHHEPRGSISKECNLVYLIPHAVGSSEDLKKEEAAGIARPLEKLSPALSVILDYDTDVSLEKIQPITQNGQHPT
Protocol: as §1

[18] = system: Serotonin (5-Hydroxytryptamine) 5-HT1, non selective; experiment: Receptor binding 271010; design: species or system rat; conditions: 10 μM
Protocol: as §1

[19] = system: Phorbol Ester; experiment: Receptor binding 264500; design: species or system mouse; conditions: 10 μM
Protocol: as §1

[20] = target: T17, Opiate μ(OP3, MOP) (Homo sapiens, UniProt P35372); experiment: Receptor binding 260410
T17 construct: Eurofins (contract assay) 260410
Protocol: as §1

[21] = system: ATPase, Ca++, skeletal muscle, pig; experiment: Eurofins panel 107480; assay type: biochemical; conditions: 10 μM
[22] = target: T18, Estrogen ERα (Homo sapiens, UniProt P03372); experiment: Receptor binding 226010
T18 construct: Eurofins (contract assay) 226010
Protocol: as §1

[23] = target: T19, Dopamine D2s (Homo sapiens, UniProt P14416); experiment: Receptor binding 219700
T19 construct: Eurofins 219700; host or cells: crude membrane preparation
Protocol: as §1

In the case of `C[C@]12CC[C@H](O)C[C@H]1CCC1C2CC[C@]2(C)[C@@H](c3c[nH]cn3)CC[C@]12O` (stereo partly drawn) [CVie 101, 3β-hydroxy-5β-10β-methyl-13β-methyl-14β-hydroxy-17β-(imidazol-4-yl)androstane], the inhibition at 10 µM [1] is reported as 13%, the inhibition at 10 µM [2] is reported as 10% and the inhibition at 10 µM [3] is reported as 7%. For the same molecule, the inhibition at 10 µM [4] was 15%, the inhibition at 10 µM [5] was 0% and the inhibition at 10 µM [6] was -4%. For the same molecule, the inhibition at 10 µM [7] was 2%, the inhibition at 10 µM [8] was 17% and the “% increase vs Control (SERCA2a Vmax)” value ([9]; compound 10 nM) was 15%*. The “Vmax (SERCA2a ATPase activity)” value ([9]; compound 10 nM) was 2.737 ± 0.336 (n = 7) μmol/min/mg prot, the “% increase vs Control (SERCA2a Vmax)” value ([9]; compound 100 nM) was 19%* and the “Vmax (SERCA2a ATPase activity)” value ([9]; compound 100 nM) was 2.832 ± 0.198 (n = 7) μmol/min/mg prot. The inhibition at 10 µM [10] was 4%, the inhibition at 10 µM [11] was 8% and the inhibition at 10 µM [12] was -6%. For the same molecule, the inhibition at 10 µM [13] was 4%, the “% inhib” value [14] was 6% and the inhibition at 10 µM [15] was 23%. For the same molecule, the inhibition at 10 µM [16] was -16%, the inhibition at 10 µM [17] was -5% and the “% inhib” value [18] was 7%. For the same molecule, the “% inhib” value [19] was −4%, the inhibition at 10 µM [20] was 19% and the “% inhib” value [21] was 14%. It also gave an inhibition at 10 µM [22] of 14% and an inhibition at 10 µM [23] of 4%.
